Measured values as given in US20230114728A1 (Venatorx Pharmaceuticals, Inc., priority 2019, published 2023).
Values after ≈ are worked out from the molar mass of the structure shown.

What was measured:
[1] = system: K. pneumoniae UMM producing SHV-5 and KPC-2; experiment: Broth microdilution MIC in CAMHB; assay type: cell-based; details: Klebsiella pneumoniae, read-out: Minimum Inhibitory Concentration, K. pneumoniae UMM
Method in brief: (§1)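 Per CLSI broth microdilution, colonies were grown 3-5 h at 37° C in cation-adjusted Mueller Hinton broth, then diluted to a starting inoculum of 2-8×10^5 CFU/mL against 2-fold serial compound dilutions. Plates were incubated 16-20 h at 37° C, and MIC was read visually as the lowest concentration with no growth.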

[2] = system: E. coli 901C; experiment: Broth microdilution MIC in CAMHB; assay type: cell-based; details: Escherichia coli; E. coli 901C (hyper-permeable); MHB; read-out: Minimum Inhibitory Concentration, E. coli 901C
Method in brief: as §1

[3] = system: K. pneumoniae SI-117 producing VIM-1; experiment: Broth microdilution MIC in CAMHB; assay type: cell-based; details: Klebsiella pneumoniae, read-out: Minimum Inhibitory Concentration, K. pneumoniae SI-117
Method in brief: as §1

[4] = system: K. pneumoniae 848844 producing SHV-11 and KPC-2; experiment: Broth microdilution MIC in CAMHB; assay type: cell-based; details: Klebsiella pneumoniae, read-out: Minimum Inhibitory Concentration, K. pneumoniae 848844
Method in brief: as §1

[5] = system: E. coli AG100; experiment: Broth microdilution MIC in CAMHB; assay type: cell-based; details: Escherichia coli; E. coli AG100 (wild-type parent); MHB; read-out: Minimum Inhibitory Concentration, E. coli AG100
Method in brief: as §1

[6] = system: E. coli AG100A; experiment: Broth microdilution MIC in CAMHB; assay type: cell-based; details: Escherichia coli, read-out: Minimum Inhibitory Concentration, E. coli AG100A
Method in brief: as §1

[7] = system: A. baumannii ATCC 19606; experiment: Broth microdilution MIC in CAMHB; assay type: cell-based; details: Acinetobacter baumannii, ATCC19606; MHB; read-out: Minimum Inhibitory Concentration, A. baumannii ATCC 19606
Method in brief: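 MIC, read by eye, is the lowest compound concentration giving no bacterial growth after 16-20 h at 37° C. Test compounds are serially diluted 2-fold in CAMHB and seeded with 2-8×10^5 CFU/mL of bacteria taken from a 3-5 h shaking culture, following CLSI methods.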

[8] = system: E. coli D22; experiment: Broth microdilution MIC in CAMHB; assay type: cell-based; details: Escherichia coli; E. coli D22 (hyper-permeable); MHB; read-out: Minimum Inhibitory Concentration, E. coli D22
Method in brief: as §1

[9] = system: E. coli ATCC 25922; experiment: Broth microdilution MIC in CAMHB; assay type: cell-based; details: Escherichia coli, ATCC25922; E. coli ATCC 25922; MHB; read-out: Minimum Inhibitory Concentration, E. coli 25922
Method in brief: as §1

[10] = system: P. aeruginosa (ΔmexAB-oprM); experiment: Broth microdilution MIC in CAMHB; assay type: cell-based; details: Pseudomonas aeruginosa, read-out: Minimum Inhibitory Concentration, P. aeruginosa ΔmexAB-OprM
Method in brief: as §1

[11] = system: P. aeruginosa ATCC 35151; experiment: Broth microdilution MIC in CAMHB; assay type: cell-based; details: Pseudomonas aeruginosa, ATCC35151; MHB; hyper-permeable strain; read-out: Minimum Inhibitory Concentration, P. aeruginosa ATCC 35151
Method in brief: as §1

[12] = system: P. aeruginosa PAO1; experiment: Broth microdilution MIC in CAMHB; assay type: cell-based; details: Pseudomonas aeruginosa, MHB, read-out: Minimum Inhibitory Concentration, P. aeruginosa PAO1
Experimental: To determine the ability of test compounds to inhibit the growth of bacterial strains, classic cell based broth microdilution minimum inhibitory concentration (MIC) assays were employed. MIC assays are performed according to CLSI methods except where otherwise noted (CLSI, 2018 and CLSI, 2019). The reference type strain E. coli ATCC 25922; the wild-type parent strain E. coli AG100; the hyper-permeable E. coli 901C and E. coli D22; and the E. coli AG100A strain lacking the acrAB efflux pump encoding genes were used to determine the ability of the PBP inhibitors to penetrate the outer membrane of gram-negative bacteria and inhibit bacterial growth. […] The P. aeruginosa ATCC 27853 and A. baumannii ATCC 19606, along with the hyper-permeable P. aeruginosa ATCC 35151 and an engineered efflux pump-compromised strain of P. aeruginosa (ΔmexAB-oprM) were used to determine the ability of PBP inhibitors to penetrate the outer membrane of P. aeruginosa and A. baumannii and assess antibacterial activity against these important gram-negative organisms.
Briefly, cryo-preserved bacterial cultures of challenge strains are streaked for isolation on appropriate agar medium, in this case cation-adjusted Mueller Hinton agar. Following incubation to allow growth of the colonies, plates are sealed with parafilm and stored refrigerated for up to two weeks. For preparation of assay inoculum and to ensure low variability, at least 5 colonies are picked from the agar plates with an inoculating loop and aseptically transferred to a culture tube containing 3 mL of cation-adjusted Mueller Hinton broth (CAMHB). The broth culture is grown for 3-5 hours at 37° C. with shaking at 200 rpm. Meanwhile, 2-fold serial dilutions of test compounds are conducted in a 96-well plate with a final volume of 75 μL per well at 2-fold the final desired concentration. After the dilution plates are set up the growing cultures are then diluted in a cuvette containing CAMHB and the optical density is measured at 600 nm. The inoculum is diluted such that 75 μL of this culture in CAMHB results in a starting bacterial concentration of 2-8×10^5 CFU/mL when added to the dilution plates. The plates are incubated for 16-20 hours for Enterobacteriaceae and Pseudomonas and 20-24 hours for Acinetobacter at 37° C. The MIC values are read visually as the lowest concentration well with no bacterial growth.

[13] = target: T1, P. aeruginosa PBP3 (Pseudomonas aeruginosa, UniProt G3XD46); experiment: Bocillin-FL fluorescence polarization competition binding assay, P. aeruginosa PBP3; details: fluorescence polarization competition binding assay using Bocillin-FL
T1 construct: made in house
T1 sequence (G3XD46 whole entry): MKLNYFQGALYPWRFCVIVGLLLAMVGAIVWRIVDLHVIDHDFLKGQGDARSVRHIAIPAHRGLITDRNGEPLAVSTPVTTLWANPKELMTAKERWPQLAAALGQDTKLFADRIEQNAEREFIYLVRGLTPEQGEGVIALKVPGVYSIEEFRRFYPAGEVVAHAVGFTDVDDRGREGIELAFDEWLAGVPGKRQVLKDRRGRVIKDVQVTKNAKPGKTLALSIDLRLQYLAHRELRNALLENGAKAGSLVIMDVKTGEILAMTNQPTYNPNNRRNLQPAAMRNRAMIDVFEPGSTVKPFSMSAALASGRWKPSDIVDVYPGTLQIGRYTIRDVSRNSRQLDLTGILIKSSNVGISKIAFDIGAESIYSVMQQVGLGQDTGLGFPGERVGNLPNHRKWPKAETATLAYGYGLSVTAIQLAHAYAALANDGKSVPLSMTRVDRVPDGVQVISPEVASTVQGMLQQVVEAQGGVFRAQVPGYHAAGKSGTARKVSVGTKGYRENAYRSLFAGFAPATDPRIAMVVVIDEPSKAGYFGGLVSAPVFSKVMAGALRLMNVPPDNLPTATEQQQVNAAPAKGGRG
Method in brief: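 Binding of boronic acid inhibitors to purified Pseudomonas aeruginosa (PA01) PBP3 was measured by fluorescence polarization competition with Bocillin-FL, a fluorescent penicillin V. Reactions of 80 μl contained 0.75 μM PBP3 and 0.1 μM Bocillin-FL in 50 mM Hepes (pH 8.0), 300 mM NaCl and 5% (v/v) glycerol, in black 384-well plates. FP (Excitation 490 nm, Emission 520 nm) was read for up to 60 minutes. EC50 is the concentration that halves PBP-bound Bocillin-FL.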

[14] = target: T2, E. coli K12 PBP3 (Escherichia coli, UniProt P0AD68); experiment: biochemical; assay type: binding
T2 construct: made in house
T2 sequence (P0AD68 1-577): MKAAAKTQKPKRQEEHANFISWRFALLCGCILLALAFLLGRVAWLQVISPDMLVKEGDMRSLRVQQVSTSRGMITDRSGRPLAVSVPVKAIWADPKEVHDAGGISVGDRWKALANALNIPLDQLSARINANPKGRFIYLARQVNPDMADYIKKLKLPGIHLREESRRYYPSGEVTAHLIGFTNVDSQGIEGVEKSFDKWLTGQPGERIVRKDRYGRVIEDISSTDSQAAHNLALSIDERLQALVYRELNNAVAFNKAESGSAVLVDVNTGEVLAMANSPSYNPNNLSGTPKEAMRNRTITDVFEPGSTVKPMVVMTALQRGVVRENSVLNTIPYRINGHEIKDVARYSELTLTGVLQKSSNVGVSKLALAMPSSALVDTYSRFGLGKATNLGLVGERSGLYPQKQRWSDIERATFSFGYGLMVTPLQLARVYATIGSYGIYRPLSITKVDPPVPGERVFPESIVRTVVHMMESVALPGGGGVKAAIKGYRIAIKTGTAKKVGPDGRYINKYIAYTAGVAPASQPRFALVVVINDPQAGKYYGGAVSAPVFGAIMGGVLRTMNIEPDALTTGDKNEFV
Method in brief: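 Fluorescence polarization (ex 490/em 520 nm) competition of inhibitors against Bocillin-FL at 0.1 μM, read up to 60 min. Final PBP levels: E. coli PBP3 1.5 μM; A. baumannii PBP2 2.5 μM, PBP3 0.2 μM in Tris pH 8.0/NaCl/glycerol/Tween 20; N. gonorrhoeae PBP2 […] in Hepes pH 8.0/NaCl/glycerol. EC50 = concentration halving PBP-bound Bocillin-FL.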

For `CCN1CCN(C(=O)NC(C(=O)N[C@H]2Cc3ccc(SCCN4CCCC4)c(C(=O)O)c3OB2O)c2csc(N)n2)C(=O)C1=O` (stereo partly drawn) [Example 64, (3R)-3-(2-(2-aminothiazol-4-yl)-2-(4-ethyl-2,3-dioxopiperazine-1-carboxamido)acetamido)-2-hydroxy-7-((2-(pyrrolidin-1-yl)ethyl)thio)-3,4-dihydro-2H-benzo[e][1,2]oxaborinine-8-carboxylic acid], the MIC [1] was > 128 µg/mL, the MIC [2] was 32 to 64 µg/mL (≈ 48.5 to 97 µM) and the MIC [3] was > 128 µg/mL. The MIC [4] was > 128 µg/mL, the MIC [5] was > 128 µg/mL and the MIC [6] was > 128 µg/mL. The MIC [7] was > 128 µg/mL, the MIC [8] was > 128 µg/mL and the MIC [9] was > 128 µg/mL. For the same molecule, the MIC [10] was > 128 µg/mL, the MIC [11] was 8 to 16 µg/mL (≈ 12.1 to 24.3 µM) and the MIC [12] was > 128 µg/mL. The “P. aeruginosa PBP3 Potency” value [13] was “B (B represents a potency between 30 μM and 500 μM inclusive)” and the EC50 [14] was > 500 µM.
